Experimental data from the CheMixHub ionic liquid set.
± gives the uncertainty stated by the source.

Test: xn = mol fraction of the nth substance listed
Conditions: for electrical conductivity: 101 kPa

C[C@H](N)C(=O)[O-].C[N+](C)(C)CCO + CCCO
viscosity (287.96 K, 100 kPa, x1 = 0.0997): 7.8 ± 1.9 mPa·s | viscosity (287.99 K, 100 kPa, x1 = 0.2007): 22.8 ± 5.5 mPa·s | viscosity (288.02 K, 100 kPa, x1 = 0.3915): 119 ± 29 mPa·s | viscosity (288.03 K, 100 kPa, x1 = 0.6939): 910 ± 220 mPa·s | viscosity (288.04 K, 100 kPa, x1 = 0.6047): 540 ± 130 mPa·s | viscosity (288.05 K, 100 kPa, x1 = 0.7915): 1505 ± 380 mPa·s | viscosity (288.06 K, 100 kPa, x1 = 0.506): 267 ± 66 mPa·s | viscosity (288.07 K, 100 kPa, x1 = 0.9049): 2669 ± 680 mPa·s | viscosity (288.08 K, 100 kPa, x1 = 0.2998): 53 ± 13 mPa·s | viscosity (288.1 K, 100 kPa, x1 = 1): 5100 ± 1300 mPa·s | viscosity (289.23 K, 100 kPa, x1 = 0.0997): 7.7 ± 1.8 mPa·s | viscosity (289.24 K, 100 kPa, x1 = 0.2007): 22.2 ± 5.3 mPa·s | viscosity (289.26 K, 100 kPa, x1 = 0.3915): 114 ± 27 mPa·s | viscosity (289.28 K, 100 kPa, x1 = 0.6939): 850 ± 210 mPa·s | viscosity (289.29 K, 100 kPa, x1 = 0.6047): 510 ± 120 mPa·s | viscosity (289.3 K, 100 kPa, x1 = 0.7915): 1387 ± 340 mPa·s | viscosity (289.31 K, 100 kPa, x1 = 0.506): 251 ± 61 mPa·s | viscosity (289.31 K, 100 kPa, x1 = 0.9049): 2464 ± 620 mPa·s | viscosity (289.32 K, 100 kPa, x1 = 0.2998): 51 ± 12 mPa·s | viscosity (289.96 K, 100 kPa, x1 = 1): 3700 ± 1000 mPa·s | viscosity (290.21 K, 100 kPa, x1 = 1): 4300 ± 1200 mPa·s | viscosity (290.49 K, 100 kPa, x1 = 0.0997): 7.5 ± 1.8 mPa·s | viscosity (290.5 K, 100 kPa, x1 = 0.2007): 21.3 ± 5.1 mPa·s | viscosity (290.51 K, 100 kPa, x1 = 0.3915): 107 ± 26 mPa·s | viscosity (290.52 K, 100 kPa, x1 = 0.6047): 470 ± 110 mPa·s | viscosity (290.52 K, 100 kPa, x1 = 0.6939): 770 ± 190 mPa·s | viscosity (290.53 K, 100 kPa, x1 = 0.506): 231 ± 56 mPa·s | viscosity (290.53 K, 100 kPa, x1 = 0.7915): 1251 ± 310 mPa·s | viscosity (290.53 K, 100 kPa, x1 = 0.9049): 2210 ± 560 mPa·s | viscosity (290.54 K, 100 kPa, x1 = 0.2998): 49 ± 12 mPa·s | viscosity (291.71 K, 100 kPa, x1 = 0.0997): 7.2 ± 1.7 mPa·s | viscosity (291.72 K, 100 kPa, x1 = 0.2007): 20.4 ± 4.9 mPa·s | viscosity (291.72 K, 100 kPa, x1 = 0.3915): 99 ± 24 mPa·s | viscosity (291.73 K, 100 kPa, x1 = 0.2998): 46 ± 11 mPa·s | viscosity (291.73 K, 100 kPa, x1 = 0.506): 214 ± 52 mPa·s | viscosity (291.73 K, 100 kPa, x1 = 0.6047): 430 ± 100 mPa·s | viscosity (291.73 K, 100 kPa, x1 = 0.6939): 700 ± 170 mPa·s | viscosity (291.73 K, 100 kPa, x1 = 0.7915): 1121 ± 280 mPa·s | viscosity (291.73 K, 100 kPa, x1 = 0.9049): 1968 ± 490 mPa·s | viscosity (292.02 K, 100 kPa, x1 = 1): 3052 ± 830 mPa·s | viscosity (292.32 K, 100 kPa, x1 = 1): 3520 ± 940 mPa·s | viscosity (292.9 K, 100 kPa, x1 = 0.0997): 6.9 ± 1.7 mPa·s | viscosity (292.91 K, 100 kPa, x1 = 0.2007): 19.6 ± 4.7 mPa·s | viscosity (292.91 K, 100 kPa, x1 = 0.2998): 43 ± 10 mPa·s | viscosity (292.91 K, 100 kPa, x1 = 0.3915): 93 ± 22 mPa·s | viscosity (292.91 K, 100 kPa, x1 = 0.6047): 391 ± 95 mPa·s | viscosity (292.92 K, 100 kPa, x1 = 0.506): 199 ± 48 mPa·s | viscosity (292.92 K, 100 kPa, x1 = 0.6939): 640 ± 160 mPa·s | viscosity (292.92 K, 100 kPa, x1 = 0.7915): 1017 ± 250 mPa·s | viscosity (292.92 K, 100 kPa, x1 = 0.9049): 1771 ± 440 mPa·s | viscosity (294.08 K, 100 kPa, x1 = 1): 2544 ± 670 mPa·s | viscosity (294.09 K, 100 kPa, x1 = 0.0997): 6.7 ± 1.6 mPa·s | viscosity (294.09 K, 100 kPa, x1 = 0.2007): 18.8 ± 4.5 mPa·s | viscosity (294.09 K, 100 kPa, x1 = 0.2998): 41 ± 9.8 mPa·s | viscosity (294.09 K, 100 kPa, x1 = 0.3915): 86 ± 21 mPa·s | viscosity (294.09 K, 100 kPa, x1 = 0.506): 185 ± 45 mPa·s | viscosity (294.09 K, 100 kPa, x1 = 0.6047): 358 ± 87 mPa·s | viscosity (294.09 K, 100 kPa, x1 = 0.9049): 1589 ± 400 mPa·s | viscosity (294.1 K, 100 kPa, x1 = 0.6939): 580 ± 140 mPa·s | viscosity (294.1 K, 100 kPa, x1 = 0.7915): 920 ± 230 mPa·s | viscosity (294.41 K, 100 kPa, x1 = 1): 2896 ± 760 mPa·s | viscosity (295.27 K, 100 kPa, x1 = 0.0997): 6.5 ± 1.6 mPa·s | viscosity (295.27 K, 100 kPa, x1 = 0.2007): 18 ± 4.3 mPa·s | viscosity (295.27 K, 100 kPa, x1 = 0.2998): 38.9 ± 9.4 mPa·s | viscosity (295.27 K, 100 kPa, x1 = 0.3915): 81 ± 20 mPa·s | viscosity (295.27 K, 100 kPa, x1 = 0.506): 172 ± 42 mPa·s | viscosity (295.27 K, 100 kPa, x1 = 0.6047): 329 ± 80 mPa·s | viscosity (295.27 K, 100 kPa, x1 = 0.6939): 530 ± 130 mPa·s | viscosity (295.27 K, 100 kPa, x1 = 0.7915): 840 ± 210 mPa·s | viscosity (295.27 K, 100 kPa, x1 = 0.9049): 1438 ± 360 mPa·s | viscosity (296.14 K, 100 kPa, x1 = 1): 2140 ± 560 mPa·s | viscosity (296.45 K, 100 kPa, x1 = 0.0997): 6.3 ± 1.5 mPa·s | viscosity (296.45 K, 100 kPa, x1 = 0.2007): 17.3 ± 4.2 mPa·s | viscosity (296.45 K, 100 kPa, x1 = 0.2998): 36.9 ± 8.9 mPa·s | viscosity (296.45 K, 100 kPa, x1 = 0.3915): 76 ± 18 mPa·s | viscosity (296.45 K, 100 kPa, x1 = 0.506): 160 ± 39 mPa·s | viscosity (296.45 K, 100 kPa, x1 = 0.6047): 302 ± 73 mPa·s | viscosity (296.45 K, 100 kPa, x1 = 0.6939): 490 ± 120 mPa·s | viscosity (296.45 K, 100 kPa, x1 = 0.7915): 760 ± 190 mPa·s | viscosity (296.45 K, 100 kPa, x1 = 0.9049): 1298 ± 320 mPa·s | viscosity (296.48 K, 100 kPa, x1 = 1): 2402 ± 620 mPa·s | viscosity (297.63 K, 100 kPa, x1 = 0.0997): 6.1 ± 1.5 mPa·s | viscosity (297.63 K, 100 kPa, x1 = 0.2007): 16.6 ± 4 mPa·s | viscosity (297.63 K, 100 kPa, x1 = 0.2998): 35 ± 8.4 mPa·s | viscosity (297.63 K, 100 kPa, x1 = 0.3915): 71 ± 17 mPa·s | viscosity (297.63 K, 100 kPa, x1 = 0.506): 149 ± 36 mPa·s | viscosity (297.63 K, 100 kPa, x1 = 0.6047): 278 ± 67 mPa·s | viscosity (297.63 K, 100 kPa, x1 = 0.6939): 450 ± 110 mPa·s | viscosity (297.63 K, 100 kPa, x1 = 0.7915): 700 ± 170 mPa·s | viscosity (297.63 K, 100 kPa, x1 = 0.9049): 1174 ± 290 mPa·s | viscosity (298.2 K, 100 kPa, x1 = 1): 1806 ± 460 mPa·s | viscosity (298.54 K, 100 kPa, x1 = 1): 2000 ± 510 mPa·s | viscosity (298.8 K, 100 kPa, x1 = 0.0997): 6 ± 1.4 mPa·s | viscosity (298.8 K, 100 kPa, x1 = 0.2007): 16 ± 3.8 mPa·s | viscosity (298.8 K, 100 kPa, x1 = 0.2998): 33.4 ± 8 mPa·s | viscosity (298.8 K, 100 kPa, x1 = 0.3915): 67 ± 16 mPa·s | viscosity (298.8 K, 100 kPa, x1 = 0.6047): 257 ± 62 mPa·s | viscosity (298.81 K, 100 kPa, x1 = 0.506): 140 ± 34 mPa·s | viscosity (298.81 K, 100 kPa, x1 = 0.6939): 410 ± 100 mPa·s | viscosity (298.81 K, 100 kPa, x1 = 0.7915): 640 ± 160 mPa·s

CCCCc1n(S(=O)(=O)O)cc[n+]1S(=O)(=O)O.O=C([O-])C(F)(F)F + CO
electrical conductivity (298.15 K, x1 = 0.0104): 1.59 ± 0.032 S/m | electrical conductivity (298.15 K, x1 = 0.0205): 2.16 ± 0.043 S/m | electrical conductivity (308.15 K, x1 = 0.02551): 2.28 ± 0.046 S/m

CCC[N+](C)(C)C.O=S(=O)([N-]S(=O)(=O)C(F)(F)F)C(F)(F)F + CCC[N+]1(C)CCCC1.O=S(=O)([N-]S(=O)(=O)C(F)(F)F)C(F)(F)F
viscosity (283.15 K, 101.3 kPa, x1 = 0.4): 135 ± 27 mPa·s | viscosity (283.15 K, 101.3 kPa, x1 = 0.6): 148 ± 30 mPa·s | viscosity (283.15 K, 101.3 kPa, x1 = 1): 179 ± 36 mPa·s | viscosity (288.15 K, 101.3 kPa, x1 = 0.6): 113 ± 23 mPa·s | viscosity (288.15 K, 101.3 kPa, x1 = 1): 133 ± 27 mPa·s | viscosity (293.15 K, 101.3 kPa, x1 = 0.4): 81 ± 16 mPa·s | viscosity (303.15 K, 101.3 kPa, x1 = 0.8): 59 ± 12 mPa·s | viscosity (308.15 K, 101.3 kPa, x1 = 0.2): 42.2 ± 8.5 mPa·s | viscosity (308.15 K, 101.3 kPa, x1 = 0.6): 46.1 ± 9.2 mPa·s | viscosity (313.15 K, 101.3 kPa, x1 = 0.6): 38.2 ± 7.7 mPa·s | viscosity (318.15 K, 101.3 kPa, x1 = 0.8): 33.4 ± 6.7 mPa·s | viscosity (323.15 K, 101.3 kPa, x1 = 0.8): 28.3 ± 5.7 mPa·s | viscosity (323.15 K, 101.3 kPa, x1 = 1): 29.5 ± 5.9 mPa·s | viscosity (328.15 K, 101.3 kPa, x1 = 0.2): 22 ± 4.4 mPa·s | viscosity (328.15 K, 101.3 kPa, x1 = 0.4): 22.2 ± 4.4 mPa·s | viscosity (328.15 K, 101.3 kPa, x1 = 0.8): 24.2 ± 4.8 mPa·s | viscosity (333.15 K, 101.3 kPa, x1 = 0.2): 19.1 ± 3.8 mPa·s | viscosity (333.15 K, 101.3 kPa, x1 = 0.4): 19.3 ± 3.9 mPa·s | viscosity (333.15 K, 101.3 kPa, x1 = 0.6): 20.3 ± 4.1 mPa·s | viscosity (333.15 K, 101.3 kPa, x1 = 1): 21.7 ± 4.3 mPa·s | viscosity (343.15 K, 101.3 kPa, x1 = 0.4): 14.9 ± 3 mPa·s | viscosity (348.15 K, 101.3 kPa, x1 = 0.4): 13.3 ± 2.7 mPa·s | viscosity (353.15 K, 101.3 kPa, x1 = 0.2): 11.8 ± 2.4 mPa·s | viscosity (353.15 K, 101.3 kPa, x1 = 0.6): 12.3 ± 2.5 mPa·s

[Cl-].[Na+] + CCCCCCCCCCCC[N+](C)(C)C.[Br-] + O
electrical conductivity (298.15 K, x2 = 0, x1 = 0.0001802): 0.1161 ± 0.0002 S/m | electrical conductivity (298.15 K, x2 = 0, x1 = 0.001799): 0.8806 ± 0.0018 S/m
